Measured values published in article PMC9524151, “Peptides derived from hookworm anti-inflammatory proteins suppress inducible colitis in mice and inflammatory cytokine production by human cells” (Frontiers in Medicine, 2022).
Ends that are not written are not given here.

Experiments:
TNBS-induced colitis = experiment: TNBS colitis model, oral administration; conditions: oral 5 mg/kg; compared with vehicle treated mice
in vitro = conditions: male, human, human serum
[1] = 100% human serum, 37°C, RP-HPLC at 214 nm, triplicate; for relative rate of degradation in human serum over 24 h: 0, 3, 8, 24 h

Molecule | remaining at 4 h, 20 μM (in vitro) | relative rate of degradation in human serum over 24 h [1] | other results
O=C(O)c1cc(/N=N/c2ccc(S(=O)(=O)Nc3ccccn3)cc2)ccc1O [sulfasalazine] | – | – | colon length after oral administration (TNBS-induced colitis): Neither ES2-10 nor sulfasalazine were distinct from the vehicle treated mice
PSKEKADLGKYKA [AIP1-13] | < 10% | – | –
SQKEKDLLKE [ES2-10] | < 10% | – | –
TPEEHDLLMDLMGDPKKAEE [AIP2-20] | – | degraded slower than AIP1-13 and ES2-10 | detection of peptide in human serum after 24 h [1]: could still be detected after 24 h; remaining at 8 h, 20 μM (in vitro): > 50%
TPEEHPLLMDLMGDPKKAEE [AIP2-20D6P] | – | degraded slower than AIP1-13 and ES2-10 but was less stable than AIP2-20 | –
